What was measured:
[1] = system: MRL-Pdcd1-/- mice; assay: Administration of VLA4 inhibitor AJM300 to myocarditis model mice (survival, echocardiography); assay type: in vivo; conditions: compared with AJM300(-) group
Experimental: The AJM300 group (+) was administered with a mixed diet containing 1% of AJM300 from 2 weeks of age until death.
At 28 days of age, 9 mice in the AJM300(-) group and 10 mice in the AJM300(+) group were evaluated for cardiac function by echocardiography and then euthanized to collect heart and blood samples.

[2] = system: autoimmune myocarditis model rats; assay: Anti-VLA-4 neutralizing antibody or AJM300 administration in rat autoimmune myocarditis model (cardiac function); assay type: in vivo, Lewis rats; conditions: 21 days after induction of myocarditis; diet with 1% AJM300, or 5 mg/kg antibody intravenously at 0w, 1w, 2w, 3w; compared with placebo group
Description: Study groups were: placebo group (5 animals), AJM300-administered group (4 animals), and neutralizing antibody-administered group (5 animals) administered with anti-VLA-4-neutralizing antibody. The placebo group was fed a diet mixed with placebo (0.43% METOLOSE + 0.14% Ac-Di-Sol) from 3 days before induction of myocarditis to 3 weeks. The AJM300-administered group was fed a diet mixed with 1% AJM300 from 3 days before induction of myocarditis to 3 weeks. The neutralizing antibody-administered group was intravenously administered with 5 mg/kg of neutralizing antibody at the time of induction of myocarditis (0w), 1 week after induction of myocarditis (1w), 2 weeks after induction of myocarditis (2w), and 3 weeks after induction of myocarditis (3w). Left ventricular contractile performance and heart rate were evaluated 21 days after induction of myocarditis.

[3] = system: PD1-/- mice; assay: Determination of therapeutic effect on myocarditis by PET/CT with [^11C]HCA2969 tracer; assay type: in vivo
Experimental: Groups of wild-type mice, placebo PD1-/- mice, AJM300-administered PD1-/- mice and anti-VLA-4 neutralizing antibody-administered PD 1-/- mice at 4 weeks of age were prepared. The placebo group was fed a normal diet and the AJM300-administered group was fed a diet containing 1% AJM300 from day 14 to day 28 after the start of rearing. The anti-VLA-4 neutralizing antibody-administered group was fed a normal diet and administered with anti-VLA -4 neutralizing antibody (10 mg/kg) intraperitoneally on days 14 and 21 after the start of rearing. On day 28 after the start of rearing, each mouse was anesthetized with isoflurane (1 to 3% in 2 L of O2) and injected with a [^11C]HCA2969 tracer (1 to 10 MBq: 10 µg of unlabeled HCA2969 containing 10 MBq of PET tracer) via a tail vein. Twenty minutes after the injection, PET/CT imaging was performed for 10 minutes.

[4] = system: EAE mice; conditions: mouse, in vivo
[5] = system: autoimmune myocarditis model rat; assay: Detection of autoimmune myocarditis by PET/CT imaging with [^11C]HCA2969 tracer in rats; assay type: in vivo, Lewis rats; conditions: autoimmune myocarditis model rats at 3 weeks of induction; about 1 to 10 MBq intravenously
Experimental: An autoimmune myocarditis model rat was prepared by administering 10 mg/ml of Pig Cardiac Myosin (purified in-house from pig heart) and Adjuvant (CFA 10 mg/ml; Chondrex, Inc., 7002) to Lewis rats (male, 8 weeks old). A day of administration of the Pig Cardiac Myosin was set as Day 0. In this model, myocarditis reached its climax on Day 21. […] On Day 12, infiltration of inflammatory cells into cardiac muscle tissue began, and, on Day 19, more intense infiltration of the inflammatory cells was observed. On Day 25, destruction of the cardiac muscle tissue due to inflammation was observed.
In autoimmune myocarditis model rat prepared in the above section 2, a [^11C]HCA2969 tracer at about 1 to 10 MBq was administered intravenously via a tail vein under inhalation anesthesia with isoflurane at 3 weeks of induction, which is the climax of myocarditis, followed by PET/CT imaging.

[6] = Stability of the produced [^11C]HCA2969 over time (quality test, radiochemical purity); assay type: physicochemical; conditions: immediately after synthesis and even 90 minutes after synthesis; final formulation, approximately 10% ethanol in physiological saline
Description: [^11C]HCA2969 was produced according to the following procedure. A synthesis scheme is shown in FIG. 1. • (1) [^11C]CO2 was produced via nuclear reaction of ^14N(p,α)^11C using N2 gas as a target using a medical cyclotron (CYPRIS HM-18, Sumitomo Heavy Industries, Ltd.). The obtained [^11C]CO2 was introduced into a vapor phase method methyl iodide synthesizer (C-GPC-100, Sumitomo Heavy Industries, Ltd.) to synthesize […] ([^11C]CH3OTf) having high reaction activity. • (2) [^11C]CH3OTf was introduced into a reaction vessel containing 500 µL of a solution of 1 mg/mL HCA2969 precursor (QD) in acetone and 3 µL of 1 mol/L NaOH and subjected to bubbling. • (3) 100 µL of 0.1 mol/L NaOH was added to the solution obtained after the bubbling in the above step (2) and a deprotection reaction was performed at room temperature for 10 minutes. • (4) 1 mL of water for injection was added to the solution obtained after the deprotection in the above step (3), the mixture was mixed thoroughly, and the whole volume was injected into HPLC to fractionate and collect [^11C]HCA2969. A representative HPLC chromatogram is shown in FIG. 2. • (5) The fractionated and collected solution was diluted with water for injection, and the whole volume was introduced into a solid-phase extraction column (HLB column) to retain [^11C]HCA2969. […]

[7] = system: EAE model mice; conditions: mouse, in vivo
[8] = molecular target: T1, VLA-4 (Mus musculus, UniProt P09055+Q00651); assay: [^11C]HCA2969 binding to VLA-4 in mouse monocytes (saturation, Scatchard analysis); conditions: 2 × 10^6 spleen monocytes
T1 construct: monocytes collected from a spleen of a mouse; endogenous in cells; host or cells: primary monocytes from mouse spleen
Experimental: Monocytes collected from a mouse were used to evaluate the binding of a [^11C]HCA2969 to VLA-4.
2 × 10^6 monocytes collected from a spleen of a mouse and a [^11C]HCA2969 synthesized in the above section 1 were added to buffer (10mM Tris pH 7.5, 0.1% BSA, 150 mM NaCl, 2 mM MnCl2, 2 mM D-glucose) at concentrations of 0.025 nM, 0.1 nM, 0.4 nM, 1.6 nM, 6.4 nM and 25.6 nM, respectively, and mixed. After mixing, the cells were incubated at room temperature for 20 minutes and washed 2 times with buffer (10mM Tris pH 7.5, 0.1% BSA, 150 mM NaCl, 2 mM MnCl2, 2 mM D-glucose). Radiation dose was measured for the washed cells using a scintillation counter.

[9] = system: MRL-Pdcd1-/- and wild-type mice; assay: Detection of myocarditis by PET/CT imaging with [^11C]HCA2969 tracer in mice; assay type: in vivo; conditions: about 1 to 10 MBq intravenously, days 25 to 26
Experimental: In the MRL-Pdcd1-/- and wild-type mice prepared in the above section 5, a [^11C]HCA2969 tracer (about 1 to 10 MBq) was administered intravenously via a tail vein under inhalation anesthesia with isoflurane on days 25 to 26, followed by PET/CT imaging.

[10] = echocardiography at 28 days of age, diet containing 1% of AJM300, t-test p=0.0231

T1 sequence (Q00651 41-1039): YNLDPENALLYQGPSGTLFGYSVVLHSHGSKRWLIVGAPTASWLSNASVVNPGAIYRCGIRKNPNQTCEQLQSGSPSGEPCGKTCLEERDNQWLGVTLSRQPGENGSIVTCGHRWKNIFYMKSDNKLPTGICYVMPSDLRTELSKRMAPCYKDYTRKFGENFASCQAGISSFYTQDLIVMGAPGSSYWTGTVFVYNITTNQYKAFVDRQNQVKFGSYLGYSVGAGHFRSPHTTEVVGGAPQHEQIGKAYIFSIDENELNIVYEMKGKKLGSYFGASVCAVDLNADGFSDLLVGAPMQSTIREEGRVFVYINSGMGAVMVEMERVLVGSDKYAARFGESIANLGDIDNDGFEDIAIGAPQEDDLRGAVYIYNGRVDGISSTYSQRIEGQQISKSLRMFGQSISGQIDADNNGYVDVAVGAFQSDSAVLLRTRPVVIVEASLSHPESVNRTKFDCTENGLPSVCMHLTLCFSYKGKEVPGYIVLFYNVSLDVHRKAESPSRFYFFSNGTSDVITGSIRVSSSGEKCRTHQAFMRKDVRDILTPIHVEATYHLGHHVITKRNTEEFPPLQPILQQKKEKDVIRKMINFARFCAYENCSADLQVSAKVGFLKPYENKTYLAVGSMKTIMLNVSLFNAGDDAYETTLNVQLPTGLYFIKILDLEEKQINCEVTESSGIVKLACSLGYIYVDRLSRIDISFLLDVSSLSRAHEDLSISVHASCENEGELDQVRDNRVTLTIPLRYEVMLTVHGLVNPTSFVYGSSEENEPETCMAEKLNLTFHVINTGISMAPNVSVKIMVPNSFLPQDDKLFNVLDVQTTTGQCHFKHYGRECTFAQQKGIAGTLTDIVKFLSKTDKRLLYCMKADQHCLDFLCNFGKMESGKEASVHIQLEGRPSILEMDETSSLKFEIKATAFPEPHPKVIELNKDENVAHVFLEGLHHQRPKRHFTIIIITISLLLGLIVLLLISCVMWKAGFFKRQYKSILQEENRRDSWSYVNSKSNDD
T1 sequence (P09055 21-798): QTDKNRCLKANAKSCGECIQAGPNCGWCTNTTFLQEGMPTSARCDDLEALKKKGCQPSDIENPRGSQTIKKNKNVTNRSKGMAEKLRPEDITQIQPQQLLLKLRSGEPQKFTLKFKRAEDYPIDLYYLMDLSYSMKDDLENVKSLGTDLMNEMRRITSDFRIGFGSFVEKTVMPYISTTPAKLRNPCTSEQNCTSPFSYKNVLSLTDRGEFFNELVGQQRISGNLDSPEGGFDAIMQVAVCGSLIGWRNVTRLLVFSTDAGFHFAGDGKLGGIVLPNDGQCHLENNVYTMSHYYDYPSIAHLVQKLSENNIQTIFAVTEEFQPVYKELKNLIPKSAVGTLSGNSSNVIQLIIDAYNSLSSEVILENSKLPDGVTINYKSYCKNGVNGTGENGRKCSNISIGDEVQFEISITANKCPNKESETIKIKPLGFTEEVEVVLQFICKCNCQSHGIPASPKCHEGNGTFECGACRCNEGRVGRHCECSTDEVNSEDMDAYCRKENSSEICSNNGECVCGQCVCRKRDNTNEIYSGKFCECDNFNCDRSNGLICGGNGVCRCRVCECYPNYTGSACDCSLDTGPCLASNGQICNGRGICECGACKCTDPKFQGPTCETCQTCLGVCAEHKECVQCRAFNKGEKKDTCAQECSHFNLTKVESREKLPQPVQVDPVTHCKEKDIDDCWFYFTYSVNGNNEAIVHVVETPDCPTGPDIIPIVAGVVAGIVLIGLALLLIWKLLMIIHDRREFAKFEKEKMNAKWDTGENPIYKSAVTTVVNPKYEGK

SUV mean [4]	SUV median [4]	tracer accumulation in hearts [5]	radiochemical purity [6] [%]	accumulation of the tracer signal in the brain [7]	accumulation of the tracer signal in the spinal cord [7]	Bmax [8] [Bq]	Kd ([8]; 0.025 nM to 25.6 nM, room temperature, 20 minutes, read-out: equilibrium dissociation constant Kd) [nM]	accumulation of the [^11C]HCA2969 tracer in the cardiac region ([3]; PD1-/- mouse, untreated, day 28, imaging twenty minutes after the injection)	tracer accumulation in hearts ([9]; two MRL-Pdcd1-/- mice)	tracer accumulation in hearts ([9]; two wild-type mice)	SMILES	heart rate [1, 10]	left ventricular contractile performance: % Fractional Shortening (%) [1, 10]	Survival period (Kaplan-Meier) ([1]; mixed diet containing 1% of AJM300 from 2 weeks of age, Log-rank test p=0.0022)	cardiac function (left ventricular contractile performance and heart rate) [2]	accumulation of the [^11C]HCA2969 tracer in the cardiac region ([3]; treated PD1-/- mice compared to the placebo group, diet containing 1% AJM300 day 14 to day 28, or antibody 10 mg/kg intraperitoneally on days 14 and 21)
–	–	–	–	–	–	–	–	–	–	–	COC(=O)[C@H](Cc1ccc(-n2c(=O)c3cc(N(C)C)ccc3n(C)c2=O)cc1)NC(=O)c1c(Cl)cccc1Cl [AJM300, carotegrast methyl]	significantly ameliorated bradycardia	significantly improved	significantly prolonged	no effect	lower
high accumulation	high accumulation	no tracer accumulation	≥ 90	increasing trend	significant increase	81.85	0.16	observed	observed	no tracer accumulation	CN(C)c1ccc2c(c1)c(=O)n(-c1ccc(CC(NC(=O)c3c(Cl)cccc3Cl)C(=O)O)cc1)c(=O)n2[11CH3] (stereo not shown) [[^11C]HCA2969]	–	–	–	–	–

Reference: patent EP4778918A1, “RADIOACTIVE POSITRON-EMITTING NUCLIDE CARBON-11 LABELED COMPOUND AND RADIOACTIVE COMPOSITION” (The University of Osaka, priority 2023, dated 2025)
